Test results from patent US8981100B2, “Use of novel coumarins as glutathione and thiol labels” (Life Technologies Corporation, priority 2007, dated 2015).
Where “and” joins values, the source holds several entries; their conditions need not be identical. Identical values can stand only once. Counter-ions that a name gives are not always drawn.

Legend:
U-2 OS cells [1] = assay: effect of BSO treatment on Example 2 staining in U-2 OS cells; assay type: cell-based, human; settings: BSO 4 mM overnight, Example 2 40 uM, varied staining time, 3.7% formaldehyde fixation, nuclear region
Experimental: (§1) Cells are plated into 96-well microplates and allowed to recover for several hours or overnight. For testing effects of drugs on intracellular thiol/glutathione content, normal growth medium is removed and replaced with normal growth medium containing the test drug. The solution is incubated for several minutes to days. Growth medium is then removed and mixture is rinsed twice with DPBS with glucose/calcium/magnesium (Invitrogen #14287). The compound of Examples 1, 2 or 4 is added in DPBS (Invitrogen #14287), with a concentration up to 100 uM (typically 20 uM). The solution is incubated in a 37 degree C. incubator for 5-30 minutes (typically 30 minutes). Cells can be imaged after dye labeling.
(§2) Aldehyde fixation: The dye solution is removed and formaldehyde 3.7% (Sigma F1635, or higher quality) in DPBS (Invitrogen #14190) is added and incubated at room temperature in a fume hood for 30 minutes. The formaldehyde fixative is then removed and cells are rinsed with DPBS (Invitrogen #14190) twice. Cells are kept in PBS.
(§3) To quantitate the images of cells stained with the Example compounds, one of the image analysis “BioApplcations” of Arrayscan VTI is used. […] Pixel intensity of the dye in cells are measured in regions (Nucleus, and/or “CytoRing”) defined by the cell identification method based on the nuclear counter stain. […]

U-2 OS cells [2] = assay: effect of quinone toxicants on Example 2 staining in U-2 OS cells; assay type: cell-based, human; settings: toxicant 2 hours, high concentration 33.3 uM in steps of 1/3, Example 2 30 min, formaldehyde fixation, nuclear region
Experimental: as §1, §2
To quantitate the images of cells stained with the Example compounds, one of the image analysis “BioApplcations” of Arrayscan VTI is used. The basic principle of the software is described as follows: Individual cells in an image are identified using the intensity profile of nuclear stain (e.g. TO-PRO-3). The regions derived from the identified nuclear region in individual cells is obtained (“CytoRing”). Pixel intensity of the dye in cells are measured in regions (Nucleus, and/or “CytoRing”) defined by the cell identification method based on the nuclear counter stain. Cell-level data (intensity and other attributes of each cell in all acquired images) are then reported by the computer for further processing and analysis.

[3] = tested on: Clone 9 cells (Rat liver cells); assay: effect of DEM treatment on Clone 9 cells, Example 2 multiplexed with YOYO-1; assay type: cell-based; settings: DEM 2 hours, at higher concentration of DEM
Experimental: Cells are plated into 96-well microplates and allowed to recover for several hours or overnight. For testing effects of drugs on intracellular thiol/glutathione content, normal growth medium is removed and replaced with normal growth medium containing the test drug. The solution is incubated for several minutes to days. Growth medium is then removed and mixture is rinsed twice with DPBS with glucose/calcium/magnesium (Invitrogen #14287). The compound of Examples 1, 2 or 4 is added in DPBS (Invitrogen #14287), with a concentration up to 100 uM (typically 20 uM). The solution is incubated in a 37 degree C. incubator for 5-30 minutes (typically 30 minutes). Cells can be imaged after dye labeling. Aldehyde fixation: The dye solution is removed and formaldehyde 3.7% (Sigma F1635, or higher quality) in DPBS (Invitrogen #14190) is added and incubated at room temperature in a fume hood for 30 minutes. The formaldehyde fixative is then removed and cells are rinsed with DPBS (Invitrogen #14190) twice. Cells are kept in PBS. To quantitate the images of cells stained with the Example compounds, one of the image analysis “BioApplcations” of Arrayscan VTI is used. […] Pixel intensity of the dye in cells are measured in regions (Nucleus, and/or “CytoRing”) defined by the cell identification method based on the nuclear counter stain. […]

U-2 OS cells [4] = assay: staining intensity of dyes in fixed U-2 OS cells, measured at the nuclear region; assay type: cell-based, human; settings: dye concentration 40 uM, 30 min staining, 3.7% formaldehyde fixation
Experimental: as §1
Aldehyde fixation: The dye solution is removed and formaldehyde 3.7% (Sigma F1635, or higher quality) in DPBS (Invitrogen #14190) is added and incubated at room temperature in a fume hood for 30 minutes. […]
(§4) The material is imaged with a fluorescence microscope with filter set for Hoechst 33342 (e.g. Arrayscan VTI (Thermo Fisher Scientific/Cellomics) to acquire the images automatically).
as §3

U-2 OS cells [5] = assay: cellular staining pattern in U-2 OS cells; assay type: cell-based, human
Experimental: as §1, §2, §4

[6] = absorption and emission maxima of the dyes; assay type: physicochemical
U-2 OS cells [7] = assay: SDS-PAGE of labeled U-2 OS cells (+/- BSO) to identify the intracellular target of the dye; assay type: cell-based, human; settings: (+/-) BSO 4 mM overnight, Example 2 40 uM for 60 min
Experimental: U-2 OS cells (ATCC HTB-96, human osteosarcoma cells) were plated in 10-cm dishes and incubated overnight in a 37 degree C. cell culture incubator. The cells were then treated with DL-Buthionine-(S,R)-sulfoximine (BSO, 4 mM in growth medium) for overnight (Control=no BSO treatment). The cells are rinsed cells 3 times with 10 mL of DPBS (Invitrogen #14287).
Labeling of cells: Example 2 (40 uM) in DPBS (Invitrogen #14287) was incubated at room temperature for 1 hour. The dye solution was removed and cells rinsed with DPBS (Invitrogen #14287) twice. The cells were scraped off the dish in the presence of DPBS and transferred to a 15 mL conical tube. The cells were pelleted by centrifugation—(5 min. at 5000 rpm, Centrific centrifuge, Fisher Scientific) and resuspended in DPBS, followed by pelleting cells by centrifugation for 5 min at 1000×g. The cells were resuspended in 170 μl DPBS and, to one half, 1 μl Protease Inhibitor (Sigma, P8340) was added, followed by 2 μl 1 M NEM for 30 min and 4 μl 1 M DTT for 30 min.
Processed samples were resolved with SDS-PAGE (NuPAGE 12% Bis-Tris, Invitrogen, NP0342BOX) run in MES buffer (Invitrogen, NP0002). LDS sample buffer (NP0007) and Molecular weight standard (SeeBluePlus2 Prestained Standard LC5925) were obtained from Invitrogen. […]

Structure (SMILES): CCCCS(=N)(=O)CCC(N)C(=O)O (racemic) [BSO, DL-Buthionine-(S,R)-sulfoximine]
- effect on Example 2 staining intensity (U-2 OS cells [1]): reduction of Example 2 staining

Structure (SMILES): O=C1C=CC(=O)C=C1 [BQ, 1,4-benzoquione]
- effect on Example 2 staining intensity (U-2 OS cells [2]): decrease of staining at high toxicant concentrations

Structure (SMILES): COC(=O)/C=C\C(=O)OC [DEM, Dimethyl maleate]
- effect on Example 2 intensity ([3]; Example 2 40 uM 30 min): decrease of Example 2 signal (left shift)
- effect on YOYO-1 intensity ([3]; YOYO-1 1 uM 30 min): increase of YOYO-1 signal (up shift)

Structure (SMILES): O=c1cc(CCl)c2cc3c4c(c2o1)CCCN4CCC3 [Example 1, 2,3,6,7-tetrahydro-9-chloromethyl-1H,5H-quinolizino(9,1-gh)coumarin]
- staining intensity (brightness) relative to comparator dyes (U-2 OS cells [4]): brighter than CMAC and mBCl
- cellular staining pattern (U-2 OS cells [5]): prominent in nuclear area and diffuse stain in the cytoplasm, with low staining in the cell periphery
- absorption maximum ([6]; in methanol): 405 nm
- emission maximum ([6]; in methanol): 493 nm

Structure (SMILES): O=c1cc(CBr)c2cc3c4c(c2o1)CCCN4CCC3 [Example 2, 2,3,6,7-tetrahydro-9-bromomethyl-1H,5H-quinolizino(9,1-gh)coumarin]
- staining intensity (brightness) relative to comparator dyes (U-2 OS cells [4]): brighter than Example 1
- cellular staining pattern (U-2 OS cells [5]): prominent in nuclear area and diffuse stain in the cytoplasm, with low staining in the cell periphery
- major intracellular target (U-2 OS cells [7]): Glutathione (GSH)
- absorption maximum ([6]; in methanol): 408 nm and 413 nm
- emission maximum ([6]; in methanol): 497 nm and 515 nm

Structure (SMILES): N[C@H](CCC(=O)N[C@H](CSCc1cc(=O)oc2c3c4c(cc12)CCCN4CCC3)C(=O)NCC(=O)O)C(=O)O [Example 3, glutathione adduct of 2,3,6,7-tetrahydro-9-bromomethyl-1H,5H-quinolizino(9,1-gh)coumarin]
- absorption maximum ([6]; in water): 408 nm
- emission maximum ([6]; in water): 512 nm

Structure (SMILES): CC1=CC(=O)c2ccccc2C1=O [MNQ, 2-methyl-1,4-naphthoquinone]
- effect on Example 2 staining intensity (U-2 OS cells [2]): decrease of staining at high toxicant concentrations

Structure (SMILES): O=C1C=CC(=O)c2ccccc21 [NQ, 1,4-naphthoquinone]
- effect on Example 2 staining intensity (U-2 OS cells [2]): decrease of staining at high toxicant concentrations
